“And” between values parts separate entries of the source, which are not always exact repeats. Equal values may be shown once. Toxic doses and inconclusive results are not listed.
Test system: CD2F1 mice, L1210 leukemia sc, survival T/C
Assay: NCI In Vivo Anticancer Drug Screen. Data for tumor model L1210 Leukemia (subcutaneous) in CD2F1 (CDF1) mice
Details: endpoint: median survival time, higher = longer survival
Experimental: The antitumor activity of compounds was measured in mice bearing transplantable tumors. Survival or tumor size were measured and the results are expressed as the measurement made in the treated group (T) divided by the measurement made in the vehicle treated control group (C). The tumor model used in this assay is L1210 Leukemia (subcutaneous) in CD2F1 (CDF1) mice

[1] = dose: 25.0 mg/kg/injection, schedule: Q01DX009 (ip), vehicle: saline
[2] = dose: 8.4 mg/kg/injection, schedule: Q01DX Z (sc), vehicle: water
[3] = dose: 14.0 mg/kg/injection, schedule: Q01DX Z (sc), vehicle: water
[4] = dose: 23.0 mg/kg/injection, schedule: Q01DX Z (sc), vehicle: water
[5] = dose: 39.0 mg/kg/injection, schedule: Q01DX Z (sc), vehicle: water
[6] = dose: 65.0 mg/kg/injection, schedule: Q01DX Z (sc), vehicle: water

C[C@]12CCC(=O)C=C1CC[C@@H]1[C@@H]2[C@@H](O)C[C@@]2(C)[C@H]1CC[C@]2(O)C(=O)CO
T/C (dose: 300.0 mg/kg/injection, schedule: Q01DX Z (sc), vehicle: methylcellulose (MC)): 115 % of control

C[C@]12C[C@H](O)[C@H]3[C@@H](CCC4=CC(=O)CC[C@@]43C)[C@@H]1CC[C@@H]2C(=O)CO
T/C (dose: 180.0 mg/kg/injection, schedule: Q01DX Z (sc), vehicle: methylcellulose (MC)): 100 % of control

Cc1c(-c2ccc(-c3ccccc3F)cc2)nc2ccc(F)cc2c1C(=O)O
T/C (dose: 12.5 mg/kg/injection, schedule: Q01DX009 (ip), vehicle: saline): 153 % of control | T/C [1]: 156 % of control | T/C (dose: 50.0 mg/kg/injection, schedule: Q01DX009 (ip), vehicle: saline): 150 % of control

OCC1OC(n2cnc3c(=S)nc[nH]c32)C(O)C1O (stereo not given)
T/C (dose: 130.0 mg/kg/injection, schedule: Q01DX Z (sc), vehicle: other): 177 % of control | T/C (dose: 216.0 mg/kg/injection, schedule: Q01DX Z (sc), vehicle: other): 183 % of control | T/C (dose: 360.0 mg/kg/injection, schedule: Q01DX Z (sc), vehicle: other): 177 % of control

CC(=O)OC1COC(NC(=O)N(CCCl)N=O)C(OC(C)=O)C1OC(C)=O (stereo not given)
T/C (dose: 0.75 mg/kg/injection, schedule: Q01DX009 (ip), vehicle: saline with Tween-80): 104 % of control | T/C (dose: 1.5 mg/kg/injection, schedule: Q01DX009 (ip), vehicle: saline with Tween-80): 102 % of control | T/C (dose: 3.0 mg/kg/injection, schedule: Q01DX009 (ip), vehicle: saline with Tween-80): 102 % of control and 122 % of control | T/C (dose: 12.0 mg/kg/injection, schedule: Q01DX009 (ip), vehicle: saline with Tween-80): 158 % of control and 297 % of control

O=C(Nc1ccc(C2=NCCN2)cc1)c1cccc(C(=O)Nc2ccc(C3=NCCN3)cc2)c1
T/C (dose: 2.0 mg/kg/injection, schedule: Q01DX Z (iv), vehicle: water): 100 % of control | T/C (dose: 3.0 mg/kg/injection, schedule: Q01DX Z (sc), vehicle: methylcellulose (MC)): 100 % of control | T/C (dose: 4.0 mg/kg/injection, schedule: Q01DX Z (iv), vehicle: water): 111 % of control | T/C (dose: 5.0 mg/kg/injection, schedule: Q01DX Z (sc), vehicle: methylcellulose (MC)): 100 % of control | T/C (dose: 5.0 mg/kg/injection, schedule: Q01DX Z (sc), vehicle: water): 111 % of control | T/C (dose: 8.0 mg/kg/injection, schedule: Q01DX Z (iv), vehicle: water): 161 % of control | T/C (dose: 8.0 mg/kg/injection, schedule: Q01DX Z (sc), vehicle: water): 183 % of control | T/C (dose: 8.4 mg/kg/injection, schedule: Q01DX Z (sc), vehicle: methylcellulose (MC)): 111 % of control | T/C [2]: 200 % of control | T/C [3]: 250 % of control | T/C (dose: 16.0 mg/kg/injection, schedule: Q01DX Z (sc), vehicle: water): 277 % of control | T/C (dose: 23.0 mg/kg/injection, schedule: Q01DX Z (sc), vehicle: methylcellulose (MC)): 222 % of control | T/C [4]: 283 % of control | T/C (dose: 32.0 mg/kg/injection, schedule: Q01DX Z (sc), vehicle: water): 305 % of control | T/C (dose: 39.0 mg/kg/injection, schedule: Q01DX Z (sc), vehicle: methylcellulose (MC)): 161 % of control | T/C [5]: 266 % of control | T/C (dose: 64.0 mg/kg/injection, schedule: Q01DX Z (sc), vehicle: water): 283 % of control | T/C (dose: 65.0 mg/kg/injection, schedule: Q01DX Z (sc), vehicle: methylcellulose (MC)): 177 % of control | T/C [6]: 266 % of control | T/C (dose: 128.0 mg/kg/injection, schedule: Q01DX Z (sc), vehicle: water): 283 % of control

CCN(CC)CCNc1ccc(C)c2sc3ccccc3c(=O)c12
T/C [1]: 116 % of control | T/C (dose: 100.0 mg/kg/injection, schedule: Q01DX009 (ip), vehicle: saline): 158 % of control | T/C (dose: 200.0 mg/kg/injection, schedule: Q01DX009 (ip), vehicle: saline): 87 % of control

O=C(Nc1ccc(C2=NCCN2)cc1)c1ccc(C(=O)Nc2ccc(C3=NCCN3)cc2)c(Cl)c1
T/C (dose: 5.0 mg/kg/injection, schedule: Q01DX Z (iv), vehicle: water): 100 % of control | T/C (dose: 8.4 mg/kg/injection, schedule: Q01DX Z (iv), vehicle: water): 100 % of control | T/C [2]: 120 % of control and 227 % of control | T/C (dose: 14.0 mg/kg/injection, schedule: Q01DX Z (iv), vehicle: water): 100 % of control | T/C [3]: 188 % of control and 195 % of control and 233 % of control | T/C [4]: 205 % of control and 220 % of control and 261 % of control | T/C (dose: 39.0 mg/kg/injection, schedule: Q01DX Z (iv), vehicle: water): 111 % of control | T/C [5]: 211 % of control and 225 % of control and 183 % of control | T/C (dose: 65.0 mg/kg/injection, schedule: Q01DX Z (iv), vehicle: water): 155 % of control | T/C [6]: 188 % of control and 200 % of control and 166 % of control

— PubChem BioAssay AID258 (DTP/NCI, 2004)
